Measurements reported in the supplement of paper PMC10307832.

Each cell line was assayed with C1=CC2=NC=CN=C2C=C1/C=C/3\C(=O)NC(=O)S3 + Cc1nc(Nc2ncc(C(=O)Nc3c(C)cccc3Cl)s2)cc(N2CCN(CCO)CC2)n1 [Dasatinib] (partner 0.075 µM) (assay: relative viability (nuclei count vs DMSO), 5 days (fraction); higher = more cells survive). Details: first compound 2 µM.
Procedure, shortened: (§1)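 Dosing by pin tool came one day after lung cancer cell lines were seeded in 1536-well plates, using either one drug or a fixed anchor-drug dose plus five library-drug doses (not always all listed) in √10 steps. After 5 days, nuclei were counted on 4× images. Relative viability is treated-well nuclei count divided by vehicle-well nuclei count, and values are medians of duplicate plates.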

| Cell Line | relative viability |
| --- | --- |
| LC-2-ad | 0.256 |

What follows are cell lines tested with C1=CC2=NC=CN=C2C=C1/C=C/3\C(=O)NC(=O)S3 + CCNC(=O)c1noc(-c2cc(C(C)C)c(O)cc2O)c1-c1ccc(CN2CCOCC2)cc1 [Luminespib] (partner 0.01 µM) in the same assay as above. Details: first compound 0.02 µM.
Procedure, shortened: as §1

| Cell Line | relative viability |
| --- | --- |
| HARA | 0.811 |
| NCI-H322M | 0.95 |
| LCLC-97TM1 | 0.767 |
| NCI-H2009 | 0.973 |
| A-427 | 0.978 |
| NCI-H441 | 0.294 |
| NCI-H661 | 0.958 |
| NCI-H1734 | 0.245 |
| NCI-H460 | 0.0317 |
| NCI-H2347 | 0.38 |
| SK-LU-1 | 0.203 |
| NCI-H1395 | 0.807 |
| 201T | 1.04 |
| NCI-H1915 | 0.771 |
| HCC-827 | 0.716 |
| LXF-289 | 0.638 |

| Cell Line | relative viability |
| --- | --- |
| NCI-H23 | 0.254 |
| NCI-H647 | 0.173 |
| CAL-12T | 0.456 |
| NCI-H1651 | 0.848 |
| EPLC-272H | 0.447 |
| NCI-H2228 | 0.157 |
| NCI-H1355 | 0.687 |
| NCI-H3122 | 0.0669 |
| NCI-H1437 | 1.09 |
| NCI-H1755 | 0.433 |
| NCI-H2023 | 0.701 |
| HCC-15 | 0.278 |
| NCI-H1793 | 0.201 |
| PC-14 | 0.145 |
| EKVX | 0.846 |
| LC-2-ad | 0.984 |

Same assay, conditions: first compound 0.06325 µM

| Cell Line | relative viability |
| --- | --- |
| HARA | 0.643 |
| NCI-H322M | 0.76 |
| LCLC-97TM1 | 0.839 |
| NCI-H2009 | 0.995 |
| A-427 | 0.958 |
| NCI-H441 | 0.334 |
| NCI-H661 | 0.961 |
| NCI-H1734 | 0.217 |
| NCI-H460 | 0.0415 |
| NCI-H2347 | 0.288 |
| SK-LU-1 | 0.2 |
| NCI-H1395 | 0.693 |
| 201T | 1.04 |
| NCI-H1915 | 0.747 |
| HCC-827 | 0.871 |
| LXF-289 | 0.738 |

| Cell Line | relative viability |
| --- | --- |
| NCI-H23 | 0.219 |
| NCI-H647 | 0.196 |
| CAL-12T | 0.417 |
| NCI-H1651 | 0.842 |
| EPLC-272H | 0.214 |
| NCI-H2228 | 0.132 |
| NCI-H1355 | 0.516 |
| NCI-H3122 | 0.0861 |
| NCI-H1437 | 1.14 |
| NCI-H1755 | 0.329 |
| NCI-H2023 | 0.713 |
| HCC-15 | 0.197 |
| NCI-H1793 | 0.188 |
| PC-14 | 0.19 |
| EKVX | 0.636 |
| LC-2-ad | 0.727 |

Same assay, conditions: first compound 0.2 µM

| Cell Line | relative viability |
| --- | --- |
| HARA | 0.706 |
| NCI-H322M | 0.707 |
| LCLC-97TM1 | 0.823 |
| NCI-H2009 | 1.04 |
| A-427 | 1 |
| NCI-H441 | 0.332 |
| NCI-H661 | 0.937 |
| NCI-H1734 | 0.182 |
| NCI-H460 | 0.0283 |
| NCI-H2347 | 0.548 |
| SK-LU-1 | 0.19 |
| NCI-H1395 | 0.719 |
| 201T | 1.04 |
| NCI-H1915 | 0.815 |
| HCC-827 | 0.64 |
| LXF-289 | 0.693 |

| Cell Line | relative viability |
| --- | --- |
| NCI-H23 | 0.219 |
| NCI-H647 | 0.168 |
| CAL-12T | 0.686 |
| NCI-H1651 | 0.77 |
| EPLC-272H | 0.328 |
| NCI-H2228 | 0.152 |
| NCI-H1355 | 0.751 |
| NCI-H3122 | 0.11 |
| NCI-H1437 | 1.05 |
| NCI-H1755 | 0.606 |
| NCI-H2023 | 0.773 |
| HCC-15 | 0.271 |
| NCI-H1793 | 0.169 |
| PC-14 | 0.195 |
| EKVX | 0.831 |
| LC-2-ad | 1.08 |

Same assay, conditions: first compound 0.6325 µM

| Cell Line | relative viability |
| --- | --- |
| HARA | 0.742 |
| NCI-H322M | 0.8 |
| LCLC-97TM1 | 0.671 |
| NCI-H2009 | 1.05 |
| A-427 | 0.842 |
| NCI-H441 | 0.364 |
| NCI-H661 | 0.943 |
| NCI-H1734 | 0.194 |
| NCI-H460 | 0.0303 |
| NCI-H2347 | 0.354 |
| SK-LU-1 | 0.202 |
| NCI-H1395 | 0.607 |
| 201T | 1.02 |
| NCI-H1915 | 0.618 |
| HCC-827 | 0.587 |
| LXF-289 | 0.642 |

| Cell Line | relative viability |
| --- | --- |
| NCI-H23 | 0.217 |
| NCI-H647 | 0.127 |
| CAL-12T | 0.623 |
| NCI-H1651 | 0.753 |
| EPLC-272H | 0.267 |
| NCI-H2228 | 0.156 |
| NCI-H1355 | 0.631 |
| NCI-H3122 | 0.0884 |
| NCI-H1437 | 1.08 |
| NCI-H1755 | 0.244 |
| NCI-H2023 | 0.757 |
| HCC-15 | 0.304 |
| NCI-H1793 | 0.169 |
| PC-14 | 0.193 |
| EKVX | 0.839 |
| LC-2-ad | 1.07 |

Same assay, conditions: first compound 2 µM

| Cell Line | relative viability |
| --- | --- |
| HARA | 0.797 |
| NCI-H322M | 0.522 |
| LCLC-97TM1 | 0.499 |
| NCI-H2009 | 1.05 |
| A-427 | 0.991 |
| NCI-H441 | 0.255 |
| NCI-H661 | 1.05 |
| NCI-H1734 | 0.257 |
| NCI-H460 | 0.0362 |
| NCI-H2347 | 0.431 |
| SK-LU-1 | 0.221 |
| NCI-H1395 | 0.794 |
| 201T | 0.986 |
| NCI-H1915 | 0.754 |
| HCC-827 | 0.746 |
| LXF-289 | 0.561 |
| NCI-H23 | 0.184 |
| NCI-H647 | 0.102 |
| CAL-12T | 0.234 |
| NCI-H1651 | 0.842 |
| EPLC-272H | 0.198 |
| NCI-H2228 | 0.137 |
| NCI-H1355 | 0.608 |
| NCI-H3122 | 0.106 |
| NCI-H1437 | 1.12 |
| NCI-H1755 | 0.352 |
| NCI-H2023 | 0.745 |
| HCC-15 | 0.214 |
| NCI-H1793 | 0.174 |
| PC-14 | 0.152 |
